The text below walks through data of patent publication US20180099931A1 (AbbVie S.à.r.l., priority 2016, published 2018).

The experiment deals with T1, F508delCFTR (Homo sapiens, UniProt P13569, DEL508-508).
T1 construct: expressed in transfected cells; host or cells: CFBE41o- human lung-derived epithelial cells (CFBE4lo-F508delCFTR-HRP), doxycycline-inducible
Kind of experiment: Cell Surface Expression-Horse Radish Peroxidase (CSE-HRP) Assay.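 For Maximum % activity (with co-corrector): co-corrector and positive control are both the same reference corrector at 2 µM.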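 For Maximum % activity (without co-corrector): percent of the 2 µM on-plate positive control corrector response above DMSO.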 Format: cell-based. Conditions: for Maximum % activity (with co-corrector): with co-corrector (2 μM); for Maximum % activity (with co-corrector) / Emax: maximum at any tested concentration, normalized to on-plate positive control; for Emax: without co-corrector, read-out: Maximum % activity (without co-corrector).

[1] abbreviates: test compound without co-corrector, read-out: EC50 (without co-corrector).
The mark [2] stands for this setting: with co-corrector (2 μM of 3-[(2R,4R)-4-({[1-(2,2-difluoro-1,3-benzodioxol-5-yl)cyclopropyl]carbonyl}amino)-7-methoxy-3,4-dihydro-2H-chromen-2-yl]benzoic acid), read-out: EC50 (with co-corrector).

Read-outs that look alike come from different tables or passages of the source.

T1 sequence (P13569 with tags, fused parts or gaps DEL508-508): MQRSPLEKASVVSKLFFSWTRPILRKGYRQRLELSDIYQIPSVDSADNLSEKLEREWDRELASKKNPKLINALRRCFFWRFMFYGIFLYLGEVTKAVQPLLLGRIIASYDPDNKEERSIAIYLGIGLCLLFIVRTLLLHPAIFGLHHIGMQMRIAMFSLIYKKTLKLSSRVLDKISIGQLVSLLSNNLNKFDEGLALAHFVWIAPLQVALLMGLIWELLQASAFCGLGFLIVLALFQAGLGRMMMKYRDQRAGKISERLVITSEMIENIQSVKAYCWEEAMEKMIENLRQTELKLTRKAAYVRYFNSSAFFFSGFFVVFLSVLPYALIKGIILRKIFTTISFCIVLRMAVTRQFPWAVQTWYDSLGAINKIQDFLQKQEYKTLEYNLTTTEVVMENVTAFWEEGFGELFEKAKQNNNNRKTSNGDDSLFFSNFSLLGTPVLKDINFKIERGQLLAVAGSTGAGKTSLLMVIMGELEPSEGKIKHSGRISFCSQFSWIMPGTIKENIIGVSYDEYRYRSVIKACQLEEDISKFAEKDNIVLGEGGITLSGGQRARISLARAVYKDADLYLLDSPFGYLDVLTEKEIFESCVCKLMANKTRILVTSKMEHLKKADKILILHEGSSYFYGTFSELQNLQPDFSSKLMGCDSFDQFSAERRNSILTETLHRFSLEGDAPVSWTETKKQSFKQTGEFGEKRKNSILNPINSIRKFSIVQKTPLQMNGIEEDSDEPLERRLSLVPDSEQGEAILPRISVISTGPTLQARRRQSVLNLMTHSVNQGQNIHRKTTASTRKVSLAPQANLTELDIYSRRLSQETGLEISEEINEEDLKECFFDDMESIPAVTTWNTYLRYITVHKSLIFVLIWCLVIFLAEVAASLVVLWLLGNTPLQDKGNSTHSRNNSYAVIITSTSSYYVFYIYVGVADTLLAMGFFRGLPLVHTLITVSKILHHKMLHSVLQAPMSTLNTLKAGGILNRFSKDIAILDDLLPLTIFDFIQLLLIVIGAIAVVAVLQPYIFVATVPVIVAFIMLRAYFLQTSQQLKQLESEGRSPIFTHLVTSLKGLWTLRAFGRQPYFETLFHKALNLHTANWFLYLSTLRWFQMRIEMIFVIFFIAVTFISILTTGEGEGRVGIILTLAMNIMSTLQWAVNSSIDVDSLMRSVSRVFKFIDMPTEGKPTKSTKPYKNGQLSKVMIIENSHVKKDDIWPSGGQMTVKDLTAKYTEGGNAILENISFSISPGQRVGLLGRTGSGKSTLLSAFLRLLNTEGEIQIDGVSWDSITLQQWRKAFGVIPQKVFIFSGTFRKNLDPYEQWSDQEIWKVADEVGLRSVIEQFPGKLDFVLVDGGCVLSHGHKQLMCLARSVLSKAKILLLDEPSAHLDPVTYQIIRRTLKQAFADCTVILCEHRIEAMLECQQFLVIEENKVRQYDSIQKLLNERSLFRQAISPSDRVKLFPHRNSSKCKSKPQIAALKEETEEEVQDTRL

Turning to `COc1ccc(C(C)(C)C)cc1CN[C@H]1[C@H](C(C)(C)C)[C@@H](C(=O)O)N(C(=O)OC(C)C)[C@H]1c1cccc(Cl)c1` [Example 86, (2S,3S,4S,5S)-3-tert-butyl-4-{[(5-tert-butyl-2-methoxyphenyl)methyl]amino}-5-(3-chlorophenyl)-1-{[(propan-2-yl)oxy]carbonyl}pyrrolidine-2-carboxylic acid], the “Maximum % activity (with co-corrector)” value is listed as “+++ (≥350)” and the Emax was over 200%. Also, under setting [1], the EC50 was in the range of 1000 to 10000 nM. The EC50 under setting [2] was under 1000 nM.
The matching figures for `COc1ncc(C2CCC2)cc1CN[C@H]1[C@H](C(C)(C)C)[C@@H](C(=O)O)N(C(=O)OC(C)C)[C@H]1c1cccnc1OC(C)C` [Example 87, (2S,3S,4S,5S)-3-tert-butyl-4-{[(5-cyclobutyl-2-methoxypyridin-3-yl)methyl]amino}-1-{[(propan-2-yl)oxy]carbonyl}-5-{2-[(propan-2-yl)oxy]pyridin-3-yl}pyrrolidine-2-carboxylic acid]: “+++ (≥350)”, over 200%, 1000 to 10000 nM and 1000 to 10000 nM.
With `COc1cc(C(F)(F)F)ccc1CN[C@H]1[C@H](C(C)(C)C)[C@@H](C(=O)O)N(C(=O)C2CCCCC2)[C@H]1c1ccccc1C` [Example 88, (2S,3S,4S,5S)-3-tert-butyl-1-(cyclohexanecarbonyl)-4-({[2-methoxy-4-(trifluoromethyl)phenyl]methyl}amino)-5-(2-methylphenyl)pyrrolidine-2-carboxylic acid], the “Maximum % activity (with co-corrector)” value is listed as “+++ (≥350)” and the Emax was over 200%. The EC50 under setting [1] is under 1000 nM. Besides, the EC50 under setting [2] is under 1000 nM.
With `COc1ncc(C2CCC2)cc1CN[C@H]1[C@H](C(C)(C)C)[C@@H](C(=O)O)N(C(=O)[C@@H]2CCCO2)[C@H]1c1ccccc1C(C)C` [Example 89, (2S,3S,4S,5S)-3-tert-butyl-4-{[(5-cyclobutyl-2-methoxypyridin-3-yl)methyl]amino}-1-[(2S)-oxolane-2-carbonyl]-5-[2-(propan-2-yl)phenyl]pyrrolidine-2-carboxylic acid], the “Maximum % activity (with co-corrector)” value was “+++ (≥350)” and the Emax was over 200%. Also, the 50% effective concentration (EC50) under setting [1] lay in the range of 1000 to 10000 nM. Further, under setting [2], the EC50 was under 1000 nM.
Turning to `COc1cc2c(cc1CN[C@H]1[C@H](C(C)(C)C)[C@@H](C(=O)O)N(C(=O)OC(C)C)[C@H]1c1ccccc1C)CCC2` [Example 90, (2S,3S,4S,5S)-3-tert-butyl-4-{[(6-methoxy-2,3-dihydro-1H-inden-5-yl)methyl]amino}-5-(2-methylphenyl)-1-{[(propan-2-yl)oxy]carbonyl}pyrrolidine-2-carboxylic acid], the “Maximum % activity (with co-corrector)” value is reported as “+++ (≥350)” and the Emax is over 200%. Moreover, the EC50 under setting [1] was in the range of 1000 to 10000 nM. The EC50 under setting [2] was in the range of 1000 to 10000 nM.
For `COc1ncc(C(F)(F)F)cc1CN[C@H]1[C@H](C(C)(C)C)[C@@H](C(=O)O)N(C(=O)OC(C)C)[C@H]1c1ccccc1C1CC1` [Example 91, (2S,3S,4S,5S)-3-tert-butyl-5-(2-cyclopropylphenyl)-4-({[2-methoxy-5-(trifluoromethyl)pyridin-3-yl]methyl}amino)-1-{[(propan-2-yl)oxy]carbonyl}pyrrolidine-2-carboxylic acid], the “Maximum % activity (with co-corrector)” value is reported as “+++ (≥350)” and the Emax was over 200%. For the same compound, under setting [1], the half-maximal effective concentration (EC50) was under 1000 nM. Besides, the EC50 under setting [2] was under 1000 nM.
For the compound `COc1ncc(C2CCC2)cc1CN[C@H]1[C@H](C(C)(C)C)[C@@H](C(=O)O)N(C(=O)C2CCCCC2)[C@H]1c1ccccc1C` [Example 92, (2S,3S,4S,5S)-3-tert-butyl-4-{[(5-cyclobutyl-2-methoxypyridin-3-yl)methyl]amino}-1-(cyclohexanecarbonyl)-5-(2-methylphenyl)pyrrolidine-2-carboxylic acid], the “Maximum % activity (with co-corrector)” value is given as “+++ (≥350)” and the Emax is over 200%. Besides, the EC50 under setting [1] was under 1000 nM. For the same compound, the 50% effective concentration (EC50) under setting [2] was under 1000 nM.
In the case of `COc1ncc(C2CCC2)cc1CN[C@H]1[C@H](C(C)(C)C)[C@@H](C(=O)O)N(C(=O)OC(C)C)[C@H]1c1ccccc1C1CC1` [Example 93, (2S,3S,4S,5S)-3-tert-butyl-4-{[(5-cyclobutyl-2-methoxypyridin-3-yl)methyl]amino}-5-(2-cyclopropylphenyl)-1-{[(propan-2-yl)oxy]carbonyl}pyrrolidine-2-carboxylic acid], the “Maximum % activity (with co-corrector)” value was “+++ (≥350)” and the Emax was over 200%. For the same compound, the concentration for a half-maximal effect (EC50) under setting [1] was 1000 to 10000 nM. Also, the EC50 under setting [2] was under 1000 nM.
Consider `COc1ncc(C2CCC2)cc1CN[C@H]1[C@H](C(C)(C)C)[C@@H](C(=O)O)N(C(=O)OC(C)C)[C@H]1c1ccccc1C` [Example 94, (2S,3S,4S,5S)-3-tert-butyl-4-{[(5-cyclobutyl-2-methoxypyridin-3-yl)methyl]amino}-5-(2-methylphenyl)-1-{[(propan-2-yl)oxy]carbonyl}pyrrolidine-2-carboxylic acid], for which the “Maximum % activity (with co-corrector)” value is “+++ (≥350)” and the Emax was over 200%. In addition, the EC50 under setting [1] is 1000 to 10000 nM. Moreover, the EC50 under setting [2] was under 1000 nM.
Consider `COc1ncc(C(F)(F)F)cc1CN[C@H]1[C@H](C(C)(C)C)[C@@H](C(=O)O)N(C(=O)[C@@H]2CCCO2)[C@H]1c1ccccc1C(C)C` [Example 95, (2S,3S,4S,5S)-3-tert-butyl-4-({[2-methoxy-5-(trifluoromethyl)pyridin-3-yl]methyl}amino)-1-[(2S)-oxolane-2-carbonyl]-5-[2-(propan-2-yl)phenyl]pyrrolidine-2-carboxylic acid], for which the “Maximum % activity (with co-corrector)” value was “+++ (≥350)” and the Emax is over 200%. Moreover, the EC50 under setting [1] was under 1000 nM. The EC50 under setting [2] was under 1000 nM.
Consider `COc1ccc(C(C)(C)C)cc1CN[C@H]1[C@H](C(C)(C)C)[C@@H](C(=O)O)N(C(=O)[C@@H]2CCCO2)[C@H]1c1cccnc1C1CC1` [Example 96, (2S,3S,4S,5S)-3-tert-butyl-4-{[(5-tert-butyl-2-methoxyphenyl)methyl]amino}-5-(2-cyclopropylpyridin-3-yl)-1-[(2S)-oxolane-2-carbonyl]pyrrolidine-2-carboxylic acid], for which the “Maximum % activity (with co-corrector)” value is recorded as “+++ (≥350)” and the Emax lay within 100 to 200%. For the same compound, under setting [1], the concentration giving a half-maximal response (EC50) was 1000 to 10000 nM. The concentration for a half-maximal effect (EC50) under setting [2] was in the range of 1000 to 10000 nM.
Turning to `CCOC(=O)N1[C@H](C(=O)O)[C@@H](C(C)(C)C)[C@H](NCc2cc(C(F)(F)F)cnc2OC)[C@@H]1c1ccccc1C(C)C` [Example 97, (2S,3S,4S,5S)-3-tert-butyl-1-(ethoxycarbonyl)-4-({[2-methoxy-5-(trifluoromethyl)pyridin-3-yl]methyl}amino)-5-[2-(propan-2-yl)phenyl]pyrrolidine-2-carboxylic acid], the “Maximum % activity (with co-corrector)” value is on record as “+++ (≥350)” and the Emax is over 200%. Further, the EC50 under setting [1] is under 1000 nM. Moreover, the EC50 under setting [2] was under 1000 nM.
